Target: T1, β‐glucosidase (GH1 family, bglB) (Paenibacillus polymyxa, UniProt P22505)
T1 construct: full-length protein encoded by bglB (448 aa, GenBank M60211.1), six His-tags, pET-28a(+), expressed in E. coli BL21(DE3)
Experiment: LSPR (enzyme immobilised on COOH chip, […] model); supported by fluorescence quenching, UV-Vis and CD
Format: binding

T1 sequence (P22505 whole entry): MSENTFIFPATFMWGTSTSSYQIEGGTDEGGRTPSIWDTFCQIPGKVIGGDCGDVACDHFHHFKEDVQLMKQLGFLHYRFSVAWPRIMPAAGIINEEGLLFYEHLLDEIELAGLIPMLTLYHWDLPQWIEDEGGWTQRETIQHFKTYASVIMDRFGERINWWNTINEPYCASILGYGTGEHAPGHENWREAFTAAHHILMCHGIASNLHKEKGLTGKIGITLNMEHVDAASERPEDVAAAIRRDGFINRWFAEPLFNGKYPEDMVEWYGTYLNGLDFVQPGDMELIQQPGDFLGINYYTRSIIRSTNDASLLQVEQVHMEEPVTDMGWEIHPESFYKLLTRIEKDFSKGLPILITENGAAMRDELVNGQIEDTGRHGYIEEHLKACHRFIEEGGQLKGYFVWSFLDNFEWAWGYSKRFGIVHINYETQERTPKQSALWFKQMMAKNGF

- Kd: 524 µM
Structure (SMILES): CC(C)=CCC[C@](C)(O[C@@H]1O[C@H](CO[C@@H]2O[C@H](CO)[C@@H](O)[C@H](O)[C@H]2O)[C@@H](O)[C@H](O)[C@H]1O)[C@H]1CC[C@]2(C)[C@@H]1[C@H](O)C[C@@H]1[C@@]3(C)CC[C@H](O[C@@H]4O[C@H](CO)[C@@H](O)[C@H](O)[C@H]4O[C@@H]4O[C@H](CO)[C@@H](O)[C@H](O)[C@H]4O)C(C)(C)[C@@H]3CC[C@]12C [ginsenoside Rb1]
